# Measurements taken from patent publication EP0546661A1, “Pyrimidine derivatives, method for preparation thereof and pharmaceutical composition having said derivatives as active elements” (JAPAN ENERGY CORPORATION, priority 1991, dated 1993).
# Like-named read-outs stand apart in the source and are kept apart here.
# Columns and labels:
# male SD rats [1] = test: Ulcer forming activity; format: in vivo; conditions: oral 10 mg/kg once daily for 5 days; 10 rats per group; stomach ulcers observed after 24 hours fasting
# Procedure: The test compounds were orally administered to male SD rats, 10 per a group, at the dosage of 10 mg/kg, once daily for 5 days. After the final administration, rats were fasted for 24 hours and killed by blood releasing under ether anesthesia. The stomachs were taken out and the presence of ulcers were observed.
# The same experiments were done with control compounds, E-5110 [Arznein Forsch. Drug Res., 37, 930 (1987), ibid, 37, 936 (1987)] abd diclofenac.
# [2] = system: bronchis of Hartle guinea pigs; test: Dilating action of bronchia by Schultz-dale reaction
# Procedure: The specimens were prepared by removing the bronchis of Hartle guinea pigs after sensitizing them with egg white albumin and terminating them by blood releasing under ether anesthesia. Each specimen was hanged down in the Magnus vessel filled with Tyrode's solution (saturated with gas composed of 95% oxygen and 5% carbon dioxide by bubbling at pH 7.4 and at […]). A tension of 1g was loaded to the specimen. After the tension became constant, histamine was added to the final concentration of 2 x 10⁻⁷ g/ml to cause the specimen to contract. The specimen was taken out from the vessel, washed thoroughly and hanged down in a different Magnus vessel filled with egg white albumin, of which final concentration was 1 x 10⁻⁵ g/ml, to cause the specimen to contract. […] As a control, theophylline in 0.1% dimethylsulphoxide aqueous solution was used. The efficacy of the test compounds was described by the suppression rate, in percentage, calculated from the contraction value obtained after the addition of the test compound, defining the contraction value caused by the egg white albumin before the addition of the test compound as 100 %.
# [3] = Scavenging activity of hydroxy radicals (linolenic acid peroxidation, absorbance at 234 nm); format: biochemical; conditions: test compound concentration 10 µM
# Procedure: Scavenging activity of hydroxy radicals were confirmed according to the method of Kharasch et al. [J. Biol. Chem., 260, 106452 (1985)]. The method is as follows. The reactions were started by adding 80 µM iron chloride (II) to the reaction mixture containing test compounds, 30 mM sodium chloride, 1.0 mM linolenic acid, 0.08% rubrol and 100 µM hydrogen peroxide in 1% N,N-dimethylformamide aqueous solution. The time course of peroxidation reaction caused by the action of hydroxy radicals to linolenic acid were monitored by measuring the change of absorbance at 234 nm reflecting the generation of conjugate double bond, and thus the disappearance of the hydroxy radicals by test compounds was measured. The reaction suppression rates of test compounds at their concentration of 10 µM were calculated and the values are listed in Table 5 below.
# male SD rats [4] = test: Carageenin induced paw edema; format: in vivo; conditions: oral, 1 hour before carageenin, paw volume 3 hours after carageenin, suppression of edema forming rate
# Procedure: The test compounds were orally administered to male SD rats, 10 per a group, which were fasted for 24 hours prior to the administration, and after one hour, 0.1 ml of 1% λ-carageenin (Picnin A, Zushi Chemical Co., Ltd.) in saline was injected subcutaneously into the right hind paw. The paw volumes were measured plethysmographically at before and 3 hours after the carageenin administration. Defining the paw volume before the injection of the λ-carageenin as the basal volume, the edema forming rates were calculated by the following equation. Edma Forming Rate(%) =((Paw volume after carageenin injection) - (Paw volume before carageenin injection))/(Paw volume before carageenin injection)x 100 [formula]
# Compounds shown in the examples 1 -3 and 5 were tested and diclofenac was used as controls.
# male mongolian gerbils = test: Brain edema (carotid artery occlusion and re-perfusion); format: in vivo; conditions: 2 mg/kg intraperitoneally 15 minutes before occlusion; 3 hours ischemia, 3 hours re-perfusion; 6 per group
# Procedure: The total left carotid artery of male mongolian gerbils were separated from surrounding tissues and exposed under the Halosen anesthesia, and when awakened from the anesthesia, the total left carotid arteries were occuled by a aneurysm forming clip. […] The next day, the total left caroted artery of the selected animals, 6 per a group, were re-exposed under the Halosen anesthesia, and when these animals were awakened, the test compounds were administered intraperitoneally (2 mg/kg), followed by occluding the left total carotid artery by a aneurysm forming clip 15 minutes after the administration. After 3 hours ischemla, the clips were removed to re-perfusion. The animals were guillotined at 3 hours after the re-perfusion, immediately followed by removing out the brains, separated their left and right parts at its median line and measured each brain weights. The brains were dried in the dry heat sterilizer at 100°C for 3 days, and measured each brain weights.
# Here, for the comparison, experiments with only surgical operations and stitchings were done as a operation only group, and experiments with only surgical operations, clip blockigs and stitchings and without the administration of the test compounds were done as a control group.
# rat = conditions: cited from earlier work
# SD rats = test: Repeated administration toxicity in SD rats; format: in vivo; conditions: 500 mg/kg, repeatedly for 2 weeks
# From the text: Theophylline is known to have high toxicity and its LD₅₀ is about […] in rat. […]
SMILES,Ulcer Cases (male SD rats [1]),IC50 ([2]; Cavia porcellus) [µM],Suppression Rate (%) [3] [%],Suppression Rate (%) (male SD rats [4]; dose 2 mg/kg),further results
"CON1CC/C(=C\c2cc(C(C)(C)C)c(O)c(C(C)(C)C)c2)C1=O [Example E-5110, reference compound]",3/10,–,–,–,–
"CCN1C(=O)C(=Cc2cc(C(C)(C)C)c(O)c(C(C)(C)C)c2)C(=O)N(CC)C1=O [Example 2, 1,3-diethyl-5-(3,5-di-tert-butyl-4-hydroxybenzylidene)-pyrimidine-2,4,6-trione]",–,67,15,32,–
"CC(C)(C)c1cc(C=C2C(=O)NC(=O)N(c3ccccc3)C2=O)cc(C(C)(C)C)c1O [Example 6, 1-phenyl-5-(3,5-di-tert-butyl-4-hydroxybeniylidene)-pyrimidine-2,4,6-trione]",0/10,–,25,–,"IC50 ([2]; suppression of egg white albumin (1 x 10⁻⁵ g/ml) induced contraction of sensitized guinea pig bronchi, read-out: IC50): 44 µM"
"O=C(O)Cc1ccccc1Nc1c(Cl)cccc1Cl [Diclofenac, reference compound]",2/10,–,–,–,Suppression Rate (%) (male SD rats [4]; dose 10 mg/kg): 51%
"Cc1ccc(N2C(=O)C(=Cc3cc(C(C)(C)C)c(O)c(C(C)(C)C)c3)C(=O)N(c3ccc(C)cc3)C2=O)cc1 [Example 7, 1,3-di-p-tolyl-5-(3,5-di-tert-butyl-4-hydroxybenzylidene)-pyrimidine-2,4,6-trione]",–,39,60,–,"water contents, Normal Side (male mongolian gerbils): 79.64 ± 0.09; water contents, Occlusion Side (male mongolian gerbils): 79.94 ± 0.33"
"CC(C)(C)c1cc(C=C2C(=O)N(C3CCCCC3)C(=O)N(C3CCCCC3)C2=O)cc(C(C)(C)C)c1O [Example 3, 1,3-dicyclohexyl-5-(3,5-di-tert-butyl-4-hydroxybenzylidene)-pyrimidine-2,4,6-trione]",1/10,57,–,11,–
"CC(C)(C)c1cc(C=C2C(=O)NC(=O)N(C3CCCCC3)C2=O)cc(C(C)(C)C)c1O [Example 5, 1-cyclohexyl-5-(3,5-di-tert-butyl-4-hydroxybenzylidene)-pyrimidine-2,4,6-trione]",0/10,59,31,24,–
"Cn1c(=O)c2[nH]cnc2n(C)c1=O [Theophylline, reference compound]",–,–,–,–,"IC50 ([2]; Cavia porcellus, suppression of egg white albumin (1 x 10⁻⁵ g/ml) induced contraction of sensitized guinea pig bronchi, read-out: IC50): 35 µM; LD₅₀ (rat): about 300 mixing"
"CN1C(=O)C(=Cc2cc(C(C)(C)C)c(O)c(C(C)(C)C)c2)C(=O)N(c2ccccc2)C1=O [Example 1, 1-methyl-3-phenyl-5-(3,5-di-tert-butyl-4-hydroxybenzylidene)-pyrimidine-2,4,6-trione]",0/10,50,59,48,abnormal symptoms (SD rats): no abnormal symptoms were observed
"CCCCN1C(=O)NC(=O)C(=Cc2cc(C(C)(C)C)c(O)c(C(C)(C)C)c2)C1=O [Example 4, 1-butyl-5-(3,5-di-tert-butyl-4-hydroxybenzylidene)-pyrimidine-2,4,6-trione]",0/10,43,18,–,–
